# Biological target: T1, Sialidase (Clostridium perfringens, UniProt P10481)
# T1 sequence (P10481 whole entry): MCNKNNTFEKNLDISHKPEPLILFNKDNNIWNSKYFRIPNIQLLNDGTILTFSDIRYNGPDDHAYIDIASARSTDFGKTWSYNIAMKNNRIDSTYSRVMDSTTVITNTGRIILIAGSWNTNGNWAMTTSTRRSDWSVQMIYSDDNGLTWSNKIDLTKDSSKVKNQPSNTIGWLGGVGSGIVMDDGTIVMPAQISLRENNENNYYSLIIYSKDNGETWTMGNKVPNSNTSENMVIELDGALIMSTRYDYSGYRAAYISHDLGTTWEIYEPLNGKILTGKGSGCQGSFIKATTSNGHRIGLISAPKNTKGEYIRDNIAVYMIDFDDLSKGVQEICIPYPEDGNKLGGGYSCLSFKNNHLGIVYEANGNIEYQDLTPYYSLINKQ
# Experiment: Stability in D2O assessed as Clostridium perfringens sialidase-mediated hydrolysis by measuring betaKdn formation at 10 mM measured after 12 hrs by 1H NMR spectroscopy
# Type: ADME
# Settings: 10000 µM
smiles,measurement,value
CC(=O)N[C@H]1[C@@H](OCCCN=[N+]=[N-])O[C@H](CO)[C@H](O)[C@@H]1O[C@@H]1O[C@H](CF)[C@H](O)[C@H](O[C@]2(C(=O)O)C[C@H](O)[C@@H](O)[C@H]([C@H](O)[C@H](O)CO)O2)[C@H]1O,Drug metabolism,Metabolite_Notdetected

# — ChEMBL document CHEMBL4706561, “Efficient chemoenzymatic synthesis of fluorinated sialyl Thomsen-Friedenreich antigens and investigation of their characteristics” (Eur J Med Chem, 2020)
